Experimental data published in PMC12667553, “TWF2 Drives Tumor Progression and Sunitinib Resistance in Renal Cell Carcinoma through Hippo Signaling Suppression” (Advanced Science, 2025).
Residue numbers refer to the chain shown, from its start.

Tests used:
[1] = target: T1, TWF2 (Twinfilin actin-binding protein; Flag-TWF2) (Homo sapiens, UniProt Q6IBS0); assay: isothermal titration calorimetry; conditions: 25 °C; 20 mM HEPES pH 7.5, 300 mM NaCl, 2 mM MgCl2; 1 mM Sal E titrated into 100 µM TWF2; single-site model
T1 construct: Flag-tagged TWF2 overexpressed in 293F cells, purified with anti-Flag magnetic beads
T1 sequence (Q6IBS0 2-349): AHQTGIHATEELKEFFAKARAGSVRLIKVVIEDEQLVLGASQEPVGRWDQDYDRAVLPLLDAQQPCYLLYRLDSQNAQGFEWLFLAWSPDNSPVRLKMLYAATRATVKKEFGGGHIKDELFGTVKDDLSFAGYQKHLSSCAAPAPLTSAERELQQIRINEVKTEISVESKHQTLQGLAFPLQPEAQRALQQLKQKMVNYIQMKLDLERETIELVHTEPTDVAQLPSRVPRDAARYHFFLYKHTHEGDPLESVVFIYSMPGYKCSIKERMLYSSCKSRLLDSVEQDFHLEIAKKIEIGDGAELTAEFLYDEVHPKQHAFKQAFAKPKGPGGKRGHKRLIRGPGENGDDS
From the text: isothermal titration calorimetry on TWF2 (Twinfilin actin-binding protein; Flag-TWF2) | direct binding affinity between Sal E and purified TWF2, with a dissociation constant (K d)

[2] = target: T2, TWF2 (Twinfilin actin-binding protein; Flag-TWF2) (Homo sapiens, UniProt Q6IBS0, M99A); assay: isothermal titration calorimetry; conditions: 25 °C; 20 mM HEPES pH 7.5, 300 mM NaCl, 2 mM MgCl2; 1 mM Sal E titrated into 100 µM TWF2; single-site model
T2 construct: Flag-tagged TWF2 overexpressed in 293F cells, purified with anti-Flag magnetic beads
T2 sequence (Q6IBS0 2-349 M99A): T1 sequence (Q6IBS0 2-349) with M98A

Kd [1]: 16.7 µM
Compound: O=C(/C=C/c1ccc(O)c(O)c1/C(=C\c1ccc(O)c(O)c1)C(=O)O[C@H](Cc1ccc(O)c(O)c1)C(=O)O)O[C@H](Cc1ccc(O)c(O)c1)C(=O)O [Salvianolic acid E]
loss of Sal E binding [2]: showing loss of Sal E binding upon M99 mutation in TWF2
